ChEMBL document CHEMBL5537201, “Discovery of Unique Bis-Substituted Aromatic Amide Derivatives as Novel Highly Potent Antibiotics for Combating Methicillin-Resistant Staphylococcus aureus (MRSA)” (J Med Chem, 2024)
In brackets after ≈: the same amount, converted by molar mass. Activity calls are given as the source filed them. No cut-off for these calls is given here.

Legend:
Staphylococcus aureus [1] = assay: Antimicrobial activity against Staphylococcus aureus ATCC6538 assessed as reduction in bacterial growth incubated for 24 hrs by two-fold broth dilution method; format: functional
Staphylococcus aureus [2] = assay: Antimicrobial activity against Staphylococcus aureus N315 assessed as reduction in bacterial growth incubated for 24 hrs by two-fold broth dilution method; format: functional
Staphylococcus aureus [3] = assay: Antimicrobial activity against methicillin resistant Staphylococcus aureus clinical isolate MRS207 assessed as reduction in bacterial growth incubated for 24 hrs by two-fold broth dilution method; format: functional
Streptomyces albus = assay: Antimicrobial activity against Streptomyces albus SHBC D11158 assessed as reduction in bacterial growth incubated for 24 hrs by two-fold broth dilution method; format: functional
Staphylococcus aureus [4] = assay: Antimicrobial activity against methicillin resistant Staphylococcus aureus clinical isolate MRS108 assessed as reduction in bacterial growth incubated for 24 hrs by two-fold broth dilution method; format: functional
Staphylococcus aureus [5] = assay: Antimicrobial activity against methicillin resistant Staphylococcus aureus clinical isolate MRS200 assessed as reduction in bacterial growth incubated for 24 hrs by two-fold broth dilution method; format: functional
Staphylococcus aureus [6] = assay: Antimicrobial activity against methicillin resistant Staphylococcus aureus clinical isolate MRS84 assessed as reduction in bacterial growth incubated for 24 hrs by two-fold broth dilution method; format: functional
Staphylococcus hominis = assay: Antimicrobial activity against methicillin-resistant Staphylococcus hominis assessed as reduction in bacterial growth incubated for 24 hrs by two-fold broth dilution method; format: functional
Staphylococcus aureus [7] = assay: Antimicrobial activity against methicillin resistant Staphylococcus aureus clinical isolate MRS23 assessed as reduction in bacterial growth incubated for 24 hrs by two-fold broth dilution method; format: functional
Staphylococcus aureus [8] = assay: Antimicrobial activity against methicillin resistant Staphylococcus aureus clinical isolate MRS152 assessed as reduction in bacterial growth incubated for 24 hrs by two-fold broth dilution method; format: functional
Staphylococcus aureus [9] = assay: Antimicrobial activity against methicillin resistant Staphylococcus aureus clinical isolate MRS97 assessed as reduction in bacterial growth incubated for 24 hrs by two-fold broth dilution method; format: functional
Staphylococcus aureus [10] = assay: Antimicrobial activity against methicillin resistant Staphylococcus aureus clinical isolate MRS70 assessed as reduction in bacterial growth incubated for 24 hrs by two-fold broth dilution method; format: functional
Staphylococcus aureus [11] = assay: Antimicrobial activity against methicillin resistant Staphylococcus aureus clinical isolate MRS153 assessed as reduction in bacterial growth incubated for 24 hrs by two-fold broth dilution method; format: functional
Staphylococcus aureus [12] = assay: Antimicrobial activity against methicillin resistant Staphylococcus aureus clinical isolate MRS1 assessed as reduction in bacterial growth incubated for 24 hrs by two-fold broth dilution method; format: functional
Staphylococcus aureus [13] = assay: Antimicrobial activity against methicillin resistant Staphylococcus aureus clinical isolate MRS121 assessed as reduction in bacterial growth incubated for 24 hrs by two-fold broth dilution method; format: functional
Staphylococcus aureus [14] = assay: Antimicrobial activity against methicillin resistant Staphylococcus aureus clinical isolate MRS273 assessed as reduction in bacterial growth incubated for 24 hrs by two-fold broth dilution method; format: functional
[15] = Cytotoxicity against human HaCaT cells assessed as reduction in cell viability measured after 24 hrs by CCK-8 method; format: toxicity, cell-based
[16] = Selectivity index, ratio of IC50 for African green monkey Vero E6 cells to MIC for Staphylococcus aureus ATCC6538; format: toxicity; details: read-out: Selectivity Index
[17] = Hemolytic activity in rabbit Red blood cell assessed as hemolysis incubated for 1 hr by two-fold microdilution method; format: toxicity, cell-based, Oryctolagus cuniculus, Erythrocyte; details: red blood cells (erythrocytes)
[18] = Selectivity index, ratio of HC50 for rabbit Red blood cell to MIC for Staphylococcus aureus ATCC6538; format: toxicity; details: red blood cells (erythrocytes), read-out: Selectivity Index
HeLa = assay: Cytotoxicity against human HeLa cells assessed as reduction in cell viability measured after 24 hrs by CCK-8 method; format: functional, cell-based
Staphylococcus aureus [19] = assay: Bactericidal activity against Staphylococcus aureus ATCC6538 assessed as reduction in survival rate at 5 to 10 times MIC measured after 30 to 120 mins by colony counting method relative to control; format: functional; details: time 30-120 min
[20] = Cytotoxicity against African green monkey Vero E6 cells assessed as reduction in cell viability measured after 24 hrs by CCK-8 method; format: toxicity, cell-based, Chlorocebus sabaeus, Vero C1008
[21] = Cytotoxicity against HEK293 cells assessed as reduction in cell viability measured after 24 hrs by CCK-8 method; format: toxicity, cell-based; details: human
Staphylococcus aureus [22] = assay: Induction of drug resistance in Staphylococcus aureus ATCC6538 assessed as change in MIC measured after 10 passages; format: functional
A549 = assay: Cytotoxicity against human A549 cells assessed as reduction in cell viability measured after 24 hrs by CCK-8 method; format: functional, cell-based; details: A549, 24 h

## C=CC(=O)N(Cc1cc2ccccc2s1)c1ccc2ccccc2c1O
Staphylococcus aureus [1]
  MIC: 7.8 µg/mL (≈ 21.7 µM)
Staphylococcus aureus [2]
  MIC: 7.8 µg/mL (≈ 21.7 µM)

## COc1cccc(-c2ccc(O)c(N(Cc3cc4ccccc4s3)C(=O)CCC(F)(F)F)c2)c1
Staphylococcus aureus [3]
  MIC: > 16 µg/mL
Streptomyces albus
  MIC: > 32 µg/mL
Staphylococcus aureus [4]
  MIC: 6 µg/mL (≈ 12.4 µM)
Staphylococcus aureus [5]
  MIC: > 16 µg/mL
Staphylococcus aureus [6]
  MIC: 16 µg/mL (≈ 33 µM)
Staphylococcus hominis
  MIC: > 32 µg/mL
Staphylococcus aureus [7]
  MIC: 6 µg/mL (≈ 12.4 µM)
Staphylococcus aureus [8]
  MIC: > 16 µg/mL
Staphylococcus aureus [1]
  MIC: 1 µg/mL (≈ 2.06 µM)
Staphylococcus aureus [9]
  MIC: 6 µg/mL (≈ 12.4 µM)
Staphylococcus aureus [10]
  MIC: > 16 µg/mL
Staphylococcus aureus [11]
  MIC: > 16 µg/mL
Staphylococcus aureus [12]
  MIC: > 16 µg/mL
Staphylococcus aureus [2]
  MIC: 1 µg/mL (≈ 2.06 µM)
Staphylococcus aureus [13]
  MIC: > 16 µg/mL
Staphylococcus aureus [14]
  MIC: 16 µg/mL (≈ 33 µM)

## COc1ccc(-c2ccc(O)c(N(Cc3cc4ccccc4s3)C(=O)CCC(F)(F)F)c2)cc1
Staphylococcus aureus [3]
  MIC: > 16 µg/mL
Streptomyces albus
  MIC: > 32 µg/mL
Staphylococcus aureus [4]
  MIC: > 16 µg/mL
Staphylococcus aureus [5]
  MIC: 16 µg/mL (≈ 33 µM)
Staphylococcus aureus [6]
  MIC: > 16 µg/mL
Staphylococcus hominis
  MIC: > 32 µg/mL
Staphylococcus aureus [7]
  MIC: > 16 µg/mL
Staphylococcus aureus [8]
  MIC: > 16 µg/mL
Staphylococcus aureus [1]
  MIC: 1 µg/mL (≈ 2.06 µM)
Staphylococcus aureus [9]
  MIC: 16 µg/mL (≈ 33 µM)
Staphylococcus aureus [10]
  MIC: > 16 µg/mL
Staphylococcus aureus [11]
  MIC: 16 µg/mL (≈ 33 µM)
Staphylococcus aureus [12]
  MIC: > 16 µg/mL
Staphylococcus aureus [2]
  MIC: 1 µg/mL (≈ 2.06 µM)
Staphylococcus aureus [13]
  MIC: 16 µg/mL (≈ 33 µM)
Staphylococcus aureus [14]
  MIC: 16 µg/mL (≈ 33 µM)

## CCCCC(=O)N(Cc1cc2ccccc2s1)c1ccc2ccccc2c1O
Staphylococcus aureus [1]
  MIC: 15.6 µg/mL (≈ 40.1 µM)
Staphylococcus aureus [2]
  MIC: 15.6 µg/mL (≈ 40.1 µM)

## O=C(CCCCl)N(Cc1cc2ccccc2s1)c1ccc2ccccc2c1O
Staphylococcus aureus [1]
  MIC: 7.8 µg/mL (≈ 19 µM)
Staphylococcus aureus [2]
  MIC: 31.2 µg/mL (≈ 76.2 µM)

## O=C(CCC(F)(F)F)N(Cc1cc2ccccc2s1)c1cc(-c2ccco2)ccc1O
Staphylococcus aureus [3]
  MIC: 8 µg/mL (≈ 18 µM)
Streptomyces albus
  MIC: 16 µg/mL (≈ 35.9 µM)
[15]
  IC50 at 24 h: > 25 µg/mL
Staphylococcus aureus [4]
  MIC: 6 µg/mL (≈ 13.5 µM)
[16]
  selectivity ratio: > 25
[17]
  HC50 at 1 h: 1640 µg/mL
Staphylococcus aureus [5]
  MIC: 6 µg/mL (≈ 13.5 µM)
[18]
  selectivity ratio: > 1000
Staphylococcus aureus [6]
  MIC: 3 µg/mL (≈ 6.73 µM)
Staphylococcus hominis
  MIC: 16 µg/mL (≈ 35.9 µM)
Staphylococcus aureus [7]
  MIC: 2 µg/mL (≈ 4.49 µM)
Staphylococcus aureus [8]
  MIC: 6 µg/mL (≈ 13.5 µM)
HeLa
  IC50: > 25 µg/mL
Staphylococcus aureus [1]
  MIC: 2 µg/mL (≈ 4.49 µM)
Staphylococcus aureus [9]
  MIC: 3 µg/mL (≈ 6.73 µM)
Staphylococcus aureus [19]
  Survival: <1%
[20]
  IC50 at 24 h: > 25 µg/mL
[21]
  IC50 at 24 h: 15.4 µg/mL (≈ 34.6 µM)
Staphylococcus aureus [22]
  Activity: inactive
Staphylococcus aureus [10]
  MIC: 6 µg/mL (≈ 13.5 µM)
Staphylococcus aureus [11]
  MIC: 2 µg/mL (≈ 4.49 µM)
Staphylococcus aureus [12]
  MIC: 6 µg/mL (≈ 13.5 µM)
Staphylococcus aureus [2]
  MIC: 1 µg/mL (≈ 2.24 µM)
Staphylococcus aureus [13]
  MIC: 6 µg/mL (≈ 13.5 µM)
A549
  IC50: > 25 µg/mL
Staphylococcus aureus [14]
  MIC: 3 µg/mL (≈ 6.73 µM)

## CCCCC(=O)N(Cc1ccc2sccc2c1)c1ccc2ccccc2c1O
Staphylococcus aureus [1]
  MIC: 31.2 µg/mL (≈ 80.2 µM)
Staphylococcus aureus [2]
  MIC: 62.5 µg/mL (≈ 160 µM)

## O=C(CCC(F)(F)F)N(Cc1cc2ccccc2s1)c1cc(-c2cncnc2)ccc1O
Staphylococcus aureus [1]
  MIC: > 16 µg/mL
Staphylococcus aureus [2]
  MIC: > 16 µg/mL

## CCCCC(=O)N(Cc1cc2ccccc2o1)c1ccc2ccccc2c1O
Staphylococcus aureus [1]
  MIC: 31.2 µg/mL (≈ 83.7 µM)
Staphylococcus aureus [2]
  MIC: 62.5 µg/mL (≈ 167 µM)

## O=C(CCC(F)(F)F)N(Cc1cc2ccccc2s1)c1cc(-c2ccc(Br)cc2)ccc1O
Staphylococcus aureus [1]
  MIC: 2 µg/mL (≈ 3.74 µM)
Staphylococcus aureus [2]
  MIC: 3 µg/mL (≈ 5.61 µM)

## O=C(CCC(F)(F)F)N(Cc1cc2ccccc2s1)c1c(O)cccc1-c1ccccc1
Staphylococcus aureus [1]
  MIC: 2 µg/mL (≈ 4.39 µM)
Staphylococcus aureus [2]
  MIC: 6 µg/mL (≈ 13.2 µM)

## O=C(CCC(F)(F)F)N(Cc1cc2ccccc2s1)c1cc(-c2ccncc2)ccc1O
Staphylococcus aureus [1]
  MIC: > 16 µg/mL
Staphylococcus aureus [2]
  MIC: > 16 µg/mL

## CCCCCC(=O)N(Cc1cc2ccccc2s1)c1ccc2ccccc2c1O
Staphylococcus aureus [1]
  MIC: > 250 µg/mL
Staphylococcus aureus [2]
  MIC: > 250 µg/mL

## O=C(CCC(F)(F)F)N(Cc1cc2ccccc2s1)c1ccc2ccccc2c1O
Staphylococcus aureus [1]
  MIC: 2 µg/mL (≈ 4.66 µM)
Staphylococcus aureus [2]
  MIC: 2 µg/mL (≈ 4.66 µM)

## CCCCC(=O)N(Cc1ccc2c(c1)OCCO2)c1ccc2ccccc2c1O
Staphylococcus aureus [1]
  MIC: 31.2 µg/mL (≈ 79.8 µM)
Staphylococcus aureus [2]
  MIC: 62.5 µg/mL (≈ 160 µM)

## O=C(CCC(F)(F)F)N(Cc1cc2ccccc2s1)c1ccc(-c2ccccc2)cc1O
Staphylococcus aureus [1]
  MIC: 2 µg/mL (≈ 4.39 µM)
Staphylococcus aureus [2]
  MIC: 3 µg/mL (≈ 6.59 µM)
